# Test results reported in patent US20260053932A1, “COMPOUNDS AND METHODS FOR THE TARGETED DEGRADATION OF ANDROGEN RECEPTOR AND ASSOCIATED METHODS OF USE” (Arvinas Operations, Inc., priority 2020, published 2026).
# Test system: androgen receptor (AR) in LNCaP and/or VCaP cells
# Test: Androgen Receptor ELISA assay (AR degradation)
# Assay type: cell-based
# Conditions: LNCaP and/or VCaP cells; 5 hours incubation; media with R1881; read-out: DC50 Code* (degradation of AR ELISA)
# In short: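 VCaP cells grown ≥3 days, then treated 5 h with compound in media containing 1 nM R1881 (10× stock). Cells lysed and AR quantified by sandwich ELISA (mouse AR detection Ab, HRP anti-mouse, TMB). DC50 and Dmax derived from AR degradation.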
row,DC50 [nM],SMILES
1,< 1,"CCOc1cc(O[C@H]2CC[C@H](NC(=O)c3cnc(N4CC(CN(C(C)C)[C@H]5C[C@H](Oc6ccc7c(c6)C(=O)N(C6CCC(=O)NC6=O)C7=O)C5)C4)cn3)CC2)ccc1C#N (some centres unmarked) [Compound 43, N-((1r,4r)-4-(4-cyano-3-ethoxyphenoxy)cyclohexyl)-5-(3-((((1r,3r)-3-((2-(2,6-dioxopiperidin-3-yl)-1,3-dioxoisoindolin-5-yl)oxy)cyclobutyl) (isopropyl)amino)methyl)azetidin-1-yl)pyrazine-2-carboxamide]"
2,< 1,"CC(C)N(CC1CN(c2ncc(C(=O)N[C@H]3CC[C@H](Oc4ccc(C#N)c(Cl)c4)CC3)cn2)C1)[C@H]1C[C@H](Oc2ccc3c(c2)C(=O)N(C2CCC(=O)NC2=O)C3=O)C1 (some centres unmarked) [Compound 66, N-((1r,4r)-4-(3-chloro-4-cyanophenoxy)cyclohexyl)-2-(3-((((1r,3r)-3-((2-(2,6-dioxopiperidin-3-yl)-1,3-dioxoisoindolin-5-yl)oxy)cyclobutyl) (isopropyl)amino)methyl)azetidin-1-yl)pyrimidine-5-carboxamide]"
3,< 1,"CCOc1cc(O[C@H]2CC[C@H](NC(=O)c3cnc(N4CCC(CN(C(C)C)[C@H]5C[C@H](Oc6ccc7c(c6)C(=O)N(C6CCC(=O)NC6=O)C7=O)C5)CC4)cn3)CC2)ccc1C#N (some centres unmarked) [Compound 64, N-((1r,4r)-4-(4-cyano-3-ethoxyphenoxy)cyclohexyl)-5-(4-((((1r,3r)-3-((2-(2,6-dioxopiperidin-3-yl)-1,3-dioxoisoindolin-5-yl)oxy)cyclobutyl) (isopropyl)amino)methyl)piperidin-1-yl)pyrazine-2-carboxamide]"
4,< 1,"COc1cc(O[C@H]2CC[C@H](NC(=O)c3cnc(N4CC(CN(C(C)C)[C@H]5C[C@H](Oc6ccc7c(c6)C(=O)N(C6CCC(=O)NC6=O)C7=O)C5)C4)cn3)CC2)ccc1C#N (some centres unmarked) [Compound 20, N-((1r,4r)-4-(4-cyano-3-methoxyphenoxy)cyclohexyl)-5-(3-((((1r,3r)-3-((2-(2,6-dioxopiperidin-3-yl)-1,3-dioxoisoindolin-5-yl)oxy)cyclobutyl) (isopropyl)amino)methyl)azetidin-1-yl)pyrazine-2-carboxamide]"

# Same assay, conditions: degradation of AR ELISA in LNCaP and/or VCaP cells; Table 2C; read-out: DC50 Code*
row,SMILES,DC50 [nM]
1,"COCCOCCN(CC1CCN(c2ncc(C(=O)N[C@H]3C(C)(C)[C@H](Oc4cc(C)c(C#N)c(C)c4)C3(C)C)cn2)CC1)[C@H]1C[C@H](Oc2ccc3c(c2)C(=O)N(C2CCC(=O)NC2=O)C3=O)C1 (some centres unmarked) [compound 89, N-((1r,3r)-3-(4-cyano-3,5-dimethylphenoxy)-2,2,4,4-tetramethylcyclobutyl)-2-(4-((((1r,3r)-3-((2-(2,6-dioxopiperidin-3-yl)-1,3-dioxoisoindolin-5-yl)oxy)cyclobutyl)(2-(2-methoxyethoxy)ethyl)amino)methyl)piperidin-1-yl)pyrimidine-5-carboxamide]",< 1
2,"CCN(CC1CCN(c2ncc(C(=O)N[C@H]3C(C)(C)[C@H](Oc4cc(C)c(C#N)c(C)c4)C3(C)C)cn2)CC1)[C@H]1C[C@H](Oc2ccc3c(c2)C(=O)N(C2CCC(=O)NC2=O)C3=O)C1 (some centres unmarked) [compound 83, N-((1r,3r)-3-(4-cyano-3,5-dimethylphenoxy)-2,2,4,4-tetramethylcyclobutyl)-2-(4-((((1r,3r)-3-((2-(2,6-dioxopiperidin-3-yl)-1,3-dioxoisoindolin-5-yl)oxy)cyclobutyl)(ethyl)amino)methyl)piperidin-1-yl)pyrimidine-5-carboxamide]",< 1
3,"CCN(CC1CCN(c2cnc(C(=O)N[C@H]3C(C)(C)[C@H](Oc4cc(C)c(C#N)c(C)c4)C3(C)C)cn2)CC1)[C@H]1C[C@H](Oc2cc(OC)c3c(c2)C(=O)N(C2CCC(=O)NC2=O)C3=O)C1 (some centres unmarked) [Compound 207, N-((1r,3r)-3-(4-cyano-3,5-dimethylphenoxy)-2,2,4,4-tetramethylcyclobutyl)-5-(4-((((1r,3r)-3-((2-(2,6-dioxopiperidin-3-yl)-7-methoxy-1,3-dioxoisoindolin-5-yl)oxy)cyclobutyl)(ethyl)amino)methyl)piperidin-1-yl)pyrazine-2-carboxamide]",< 1
4,"Cc1cc(O[C@H]2C(C)(C)[C@H](NC(=O)c3ncc(N4CCC(CN(C(C)C)[C@H]5C[C@H](Oc6ccc7c(c6)C(=O)N(C6CCC(=O)NC6=O)C7=O)C5)CC4)cn3)C2(C)C)cc(C)c1C#N (some centres unmarked) [compound 132, N-((1r,3r)-3-(4-cyano-3,5-dimethylphenoxy)-2,2,4,4-tetramethylcyclobutyl)-5-(4-((((1r,3r)-3-((2-(2,6-dioxopiperidin-3-yl)-1,3-dioxoisoindolin-5-yl)oxy)cyclobutyl) (isopropyl)amino)methyl)piperidin-1-yl)pyrimidine-2-carboxamide]",1 to 10
5,"Cc1cc(O[C@H]2C(C)(C)[C@H](NC(=O)c3ccc(N4CCC(CN(C)[C@H]5CC[C@@H](Oc6ccc7c(c6)C(=O)N(C6CCC(=O)NC6=O)C7=O)C5)CC4)cc3)C2(C)C)cc(C)c1C#N (stereo partly drawn) [compound 152, N-((1r,3S)-3-(4-cyano-3,5-dimethylphenoxy)-2,2,4,4-tetramethylcyclobutyl)-4-(4-((((1S,3R)-3-((2-(2,6-dioxopiperidin-3-yl)-1,3-dioxoisoindolin-5-yl)oxy)cyclopentyl) (methyl)amino)methyl)piperidin-1-yl)benzamide]",< 1
6,"Cc1cc(O[C@H]2C(C)(C)[C@H](NC(=O)c3ccc(N4CC5(CC(CN(C(C)C)[C@H]6C[C@H](Oc7ccc8c(c7)C(=O)N(C7CCC(=O)NC7=O)C8=O)C6)C5)C4)nn3)C2(C)C)cc(C)c1C#N (some centres unmarked) [compound 163, N-((1r,3r)-3-(4-cyano-3,5-dimethylphenoxy)-2,2,4,4-tetramethylcyclobutyl)-6-(6-((((1r,3r)-3-((2-(2,6-dioxopiperidin-3-yl)-1,3-dioxoisoindolin-5-yl)oxy)cyclobutyl) (isopropyl)amino)methyl)-2-azaspiro[3.3]heptan-2-yl)pyridazine-3-carboxamide]",< 1
7,"COc1cc(O[C@H]2C(C)(C)[C@H](NC(=O)c3ccc(N4CCC(CN(C(C)C)[C@H]5C[C@H](Oc6cc(OC)c7c(c6)C(=O)N(C6CCC(=O)NC6=O)C7=O)C5)CC4)nn3)C2(C)C)ccc1C#N (some centres unmarked) [compound 102, N-((1r,3r)-3-(4-cyano-3-methoxyphenoxy)-2,2,4,4-tetramethylcyclobutyl)-6-(4-((((1r,3r)-3-((2-(2,6-dioxopiperidin-3-yl)-7-methoxy-1,3-dioxoisoindolin-5-yl)oxy)cyclobutyl) (isopropyl)amino)methyl)piperidin-1-yl)pyridazine-3-carboxamide]",< 1

# Next, values leading:
row,DC50 [nM],SMILES
1,< 1,"Cc1cc(O[C@H]2C(C)(C)[C@H](NC(=O)c3ccc(N4CCC(CN(C)[C@H]5C[C@H](Oc6ccc7c(c6)C(=O)N(C6CCC(=O)NC6=O)C7=O)C5)CC4)cc3)C2(C)C)cc(C)c1C#N (mixture of isomers) [compound 186, rac-N-((1r,3r)-3-(4-cyano-3,5-dimethylphenoxy)-2,2,4,4-tetramethylcyclobutyl)-4-(4-((((1r,3r)-3-((2-(2,6-dioxopiperidin-3-yl)-1,3-dioxoisoindolin-5-yl)oxy)cyclobutyl) (methyl)amino)methyl)piperidin-1-yl)benzamide]"
2,< 1,"Cc1cc(O[C@H]2C(C)(C)[C@H](NC(=O)c3ccc(N4CCC(CN(C)[C@@H]5CC[C@H](Oc6ccc7c(c6)C(=O)N(C6CCC(=O)NC6=O)C7=O)C5)CC4)cc3)C2(C)C)cc(C)c1C#N (stereo partly drawn) [compound 166, N-((1r,3R)-3-(4-cyano-3,5-dimethylphenoxy)-2,2,4,4-tetramethylcyclobutyl)-4-(4-((((1R,3S)-3-((2-(2,6-dioxopiperidin-3-yl)-1,3-dioxoisoindolin-5-yl)oxy)cyclopentyl) (methyl)amino)methyl)piperidin-1-yl)benzamide]"
3,< 1,"COc1cc(O[C@H]2C[C@H](N(CC3CCN(c4ncc(C(=O)N[C@H]5C(C)(C)[C@H](Oc6cc(C)c(C#N)c(C)c6)C5(C)C)cn4)CC3)CC(F)(F)F)C2)cc2c1C(=O)N(C1CCC(=O)NC1=O)C2=O (some centres unmarked) [compound 179, N-((1r,3r)-3-(4-cyano-3,5-dimethylphenoxy)-2,2,4,4-tetramethylcyclobutyl)-2-(4-((((1r,3r)-3-((2-(2,6-dioxopiperidin-3-yl)-7-methoxy-1,3-dioxoisoindolin-5-yl)oxy)cyclobutyl)(2,2,2-trifluoroethyl)amino)methyl)piperidin-1-yl)pyrimidine-5-carboxamide]"
4,1 to 10,"CCOc1cc(O[C@H]2C[C@H](N(CC3CCN(c4cnc(C(=O)N[C@H]5C(C)(C)[C@H](Oc6cc(C)c(C#N)c(C)c6)C5(C)C)cn4)CC3)C(C)C)C2)cc2c1C(=O)N(C1CCC(=O)NC1=O)C2=O (mixture of isomers) [compound 238, rac-N-((1r,3r)-3-(4-cyano-3,5-dimethylphenoxy)-2,2,4,4-tetramethylcyclobutyl)-5-(4-((((1r,3r)-3-((2-(2,6-dioxopiperidin-3-yl)-7-ethoxy-1,3-dioxoisoindolin-5-yl)oxy)cyclobutyl) (isopropyl)amino)methyl)piperidin-1-yl)pyrazine-2-carboxamide]"
5,< 1,"COCCN(CC1CCN(c2ccc(C(=O)N[C@H]3C(C)(C)[C@H](Oc4ccc(C#N)c(Cl)c4)C3(C)C)cc2)CC1)[C@H]1C[C@H](Oc2ccc3c(c2)C(=O)N(C2CCC(=O)NC2=O)C3=O)C1 (some centres unmarked) [compound 184, N-((1r,3r)-3-(3-chloro-4-cyanophenoxy)-2,2,4,4-tetramethylcyclobutyl)-4-(4-((((1r,3r)-3-((2-(2,6-dioxopiperidin-3-yl)-1,3-dioxoisoindolin-5-yl)oxy)cyclobutyl)(2-methoxyethyl)amino)methyl)piperidin-1-yl)benzamide]"
6,< 1,"Cc1cc(O[C@H]2C(C)(C)[C@H](NC(=O)c3ccc(CN4CCOC[C@H]4CN4CCN(c5ccc6c(c5)C(=O)N(C5CCC(=O)NC5=O)C6=O)CC4)cc3)C2(C)C)cc(C)c1C#N (stereo partly drawn) [compound 183, N-((1r,3R)-3-(4-cyano-3,5-dimethylphenoxy)-2,2,4,4-tetramethylcyclobutyl)-4-(((3R)-3-((4-(2-(2,6-dioxopiperidin-3-yl)-1,3-dioxoisoindolin-5-yl)piperazin-1-yl)methyl)morpholino)methyl)benzamide]"
